In patent publication US20160310584A1, “FORMULATIONS FOR NEOPLASIA VACCINES” (THE BROAD INSTITUTE INC., priority 2013, published 2016):
Like-named read-outs stand apart in the source and are kept apart here. Where a SMILES comes first, the peptide text is derived from it. Where no end group is shown, it is not given here.

What was measured:
Type in all cases: physicochemical
[1] = Peptide solubility evaluation: dissolution in DMSO, dilution in D5W with or without succinate
Description: (§1) In a representative procedure, peptides were weighed and corrected for % peptide content, and then dissolved in DMSO to a concentration of 50 mg/mL. The DMSO/Peptide solution was then diluted with 5 mM sodium succinate in D5W to a 2 mg/mL peptide concentration.
Additional peptide solubility conditions were tested. Peptides CS6709, CS6712, CS6720, CS6726, and CS6783 were weighed at approximately 10 mg each. The peptides were then dissolved in approximately 200 μL USP grade DMSO to obtain a 50 mg/mL concentration for each peptide. […] Additional 50 μL increments of DMSO were added to Peptide CS6709 up to 400 μL; for a total of 600 μL of DMSO.
Based on gross weight and peptide content, 15 mg (net weight) or slightly more of each individual peptide are weighed and 100% USP Grade DMSO […] is added to achieve a final peptide concentration of 50 mg/ml.

pH of peptide solutions = assay: pH of peptide solutions
Description: as §1

[2] = Dissolution of peptide in D5W without using DMSO; conditions: small amount of peptide (<1 mg)
[3] = DMSO/D5W, Table 4, Y/N, diluted to 2 mg/ml, read-out: Solubility In DMSO/D5W
[4] = DMSO/D5W/succinate, Table 4, Y/N, read-out: Solubility in DMSO/D5W/Succinate
[5] = Table 4, Y/N, diluted to 2 mg/ml, read-out: Solubility In DMSO/D5W
[6] = Table 4, symbol X not defined, peptides dissolved at 50 mg/ml in 100% DMSO, read-out: Solubility in DMSO

Compound | solubility [1, 3] | pH of peptides in DMSO/D5W/5 mM S. Succinate spike (pH of peptide solutions) | pH of peptides in DMSO/D5W/5 mM Succinate and Hiltonol (pH of peptide solutions) | further results
CC[C@H](C)[C@H](NC(=O)[C@H](CS)NC(=O)[C@H](CC(C)C)NC(=O)[C@@H](N)CC(=O)O)C(=O)N[C@@H](CS)C(=O)N1CCC[C@H]1C(=O)N[C@@H](CCCNC(=N)N)C(=O)N[C@@H](CO)C(=O)N[C@@H](Cc1c[nH]cn1)C(=O)N[C@@H](CCCNC(=N)N)C(=O)NCC(=O)N[C@@H](C)C(=O)N[C@@H](Cc1ccccc1)C(=O)N[C@@H](CCC(N)=O)C(=O)N[C@@H](CC(C)C)C(=O)N[C@@H](CC(C)C)C(=O)N1CCC[C@H]1C(=O)N[C@@H](CO)C(=O)N[C@@H](C)C(=O)N[C@@H](CC(C)C)C(=O)N[C@@H](CC(C)C)C(=O)N[C@H](C(=O)N[C@@H](CCCNC(=N)N)C(=O)N[C@H](C(=O)N[C@@H](CC(C)C)C(=O)N[C@@H](CCC(=O)O)C(=O)NCC(=O)N[C@@H](CO)C(=O)N[C@@H](CC(=O)O)C(=O)N[C@@H](CO)C(=O)O)C(C)C)C(C)C [CS6932] (H-DLCICPRSHRGAFQLLPSALLVRVLEGSDS-OH) | > 2000 µg/mL | – | – | –
H-AESAQRQGPLGGGEQSANEF-OH [CS7417] | – | 6.28 | 6.5 | solubility [1]: > 2000 µg/mL; solubility [1, 4]: > 2000 µg/mL
H-AESAQRQGPNGGGEQSANEF-OH [CS7416] | – | 6.31 | 6.54 | –
H-AHRQGEKQHLLPVFSRLALRLPWRHSVQL-OH [CS6941] | – | 6.49 | 6.78 | –
H-ALSLTPGLRIGPSGLFLVFLAESAVDKGHPNRS-OH [CS7410] | – | 6.46 | 6.88 | –
H-APALGPGAASVASRCGLDPALAPGGSHMLRA-OH [CS6927] | > 2000 µg/mL | – | – | –
H-DASDFLPDTQLFPHFTELLLPLDPLEGSSV-OH [CS6935] | < 2000 µg/mL | – | – | –
H-DMAWRRNSRLYWLIKMVEQWQEQHLPSLSS-OH [CS6943] | > 2000 µg/mL | – | – | –
H-DSAVDKGHPNRSALSLTPGLRIGPSGIPQAGLG-OH [CS6726] | > 2000 µg/mL | – | – | Dissolution directly in D5W without using DMSO [2]: could be dissolved
H-DSAVDKGHPNRSALSLTPGLRIGPSGLFLVFLA-OH [CS7411] | – | 6.53 | 6.94 | –
H-EDLHLLSVPCPSYKKLPLLIFPSHRRAPLLSA-OH [CS6918] | – | – | – | solubility [1, 5]: > 2000 µg/mL
H-EEGLLPEVFGAGVPLALCPAVPSAAKPHRPRVL-OH [CS6933] | > 2000 µg/mL | – | – | –
H-EPDQEAVQSSTYKDCNTLHLPTERFSPVR-OH [CS6710] | > 2000 µg/mL | – | – | –
H-FRLIWRSVKNGKSSREQELSWNCSHQVPSLGA-OH [CS6917] | > 2000 µg/mL | – | – | –
H-GASRRSSASQGAGSLGLSEEKTLRSGGGP-OH [CS6781] | > 2000 µg/mL | – | – | –
H-GKSRGQQAQDRARHAAGAAPARPLGALREQ-OH [CS6938] | > 2000 µg/mL | – | – | –
H-GLLSDGSGLGQITWASAEHLQRPGAGAELA-OH [CS6914] | > 2000 µg/mL | – | – | –
H-GTKALQLHSIAGRWPRMEPWVVESMSLGVP-OH [CS7415] | – | 6.61 | 6.81 | –
H-GTYLQGTASALSQSQERPPSVNRVPPSSPSSQE-OH [CS6725] | > 2000 µg/mL | – | – | –
H-IGALNPKRAAFFAEHYESWE-OH [CS7420] | – | 6.38 | 6.56 | solubility [1]: > 2000 µg/mL
H-KKEKAEKLEKERQRHISKPLLGGPFSLTTHTGE-OH [CS6718] | > 2000 µg/mL | – | – | –
H-KKNITNLSRLVVRPDTDAVY-OH [CS7431] | – | 6.45 | 6.69 | –
H-KPKKVAGAATPKKSIKRTPKKVKKPATAAGTKK-OH [CS6717] | > 2000 µg/mL | – | – | –
H-LAASGLHGSAWLVPGEQPVSGPHHGKQPAGV-OH [CS6930] | > 2000 µg/mL | – | – | –
H-LKDSNSWPPSNKRGFDTEDAHKSNATPVP-OH [CS6712] | – | – | – | Dissolution directly in D5W without using DMSO [2]: could be dissolved
H-LLTDRNTSGTTFTLLGVSDYPELQVP-OH [CS7409] | – | 6.32 | 6.62 | solubility [1]: > 2000 µg/mL; solubility [1, 4]: > 2000 µg/mL

Compound | solubility [1, 3] | pH of peptides in DMSO/D5W/5 mM S. Succinate spike (pH of peptide solutions) | pH of peptides in DMSO/D5W/5 mM Succinate and Hiltonol (pH of peptide solutions) | further results
H-LLTDRNTSGTTFTLLGVSDYPELQVPIPQAGLG-OH [CS7408] | – | 6.31 | 6.75 | solubility [1]: > 2000 µg/mL; solubility [1, 4]: > 2000 µg/mL
H-LPVFIGNIAVNHAPVSLRPGLGLPPGAPPGTVP-OH [CS7438] | – | 6.78 | 6.96 | –
H-LPVFIGNIAVNHAPVSLRPGLGLPPGAPPLVVP-OH [CS6730] | > 2000 µg/mL | – | – | –
H-LRVFIGNIAVNHAPVSLRPGLGLPPGAPPGTVP-OH [CS7412] | – | 6.61 | 6.96 | solubility [1]: > 2000 µg/mL
H-LSVPFTCGVNFGDSIEDLEI-OH [CS7428] | < 2000 µg/mL | – | – | –
H-LTDLPGRIRVAPQQNDLDSPQQISISNAE-OH [CS6709] | – | – | – | solubility [1, 6]: < 50000 µg/mL; Dissolution directly in D5W without using DMSO [2]: could be dissolved
H-PIERVKKNLLKKEYNVSDDSMKLGGNNTSEKAD-OH [CS6721] | > 2000 µg/mL | – | – | –
H-PIQVFYTKQPQNDYLHVALVSVFQIHQEAPSSQ-OH [CS6729] | > 2000 µg/mL | – | – | –
H-PLMQTELHQLVPEADPEEMA-OH [CS7430] | – | 6.23 | 6.37 | –
H-PPYPYSSPSLVLPTEPHTPKSLQQPGLPS-OH [CS6715] | > 2000 µg/mL | – | – | –
H-PQLAGGGGSGAPGEHPLLPGGAPLPAGLF-OH [CS6716] | > 2000 µg/mL | – | – | –
H-RGLHSQGLGRGRIAMAQTAGVLRSLEQEE-OH [CS6711] | > 2000 µg/mL | – | – | –
H-SGQPAPEETVLFLGLLHGLLLILRRLRGG-OH [CS6937] | – | 6.51 | 6.76 | solubility [1]: > 2000 µg/mL
H-SHVEKAHITAESAQRQGPNGGGEQSANEF-OH [CS6708] | > 2000 µg/mL | – | – | –
H-SKLPYPVAKSGKRALARGPAPTEKTPHSGAQLG-OH [CS6719] | > 2000 µg/mL | – | – | –
H-SPTEPSTKLPGFDSCGNTEIAERKIKRIYGGFK-OH [CS6720] | > 2000 µg/mL | – | – | Dissolution directly in D5W without using DMSO [2]: could be dissolved
H-SYDSVIRELLQKPNVRVVVL-OH [CS7425] | > 2000 µg/mL | 6.44 | 6.65 | solubility [1, 4]: < 2000 µg/mL; solubility [1, 6]: < 50000 µg/mL
H-SYKKLPLLIFPSHRRAPLLSATGDRGFSV-OH [CS6936] | – | – | – | solubility [1, 5]: > 2000 µg/mL
H-VAGLAASGLHGSAWLVPGEQPVSGPHHGKQ-OH [CS6931] | – | 6.42 | 6.66 | –
H-VEQGHVRVGPDVVTHPAFLV-OH [CS7427] | – | 6.34 | 6.52 | –
H-VQLSIQDVIRRARLSTVPTAQRVALRSGWI-OH [CS7413] | – | 6.73 | 7.02 | –
H-VSWGKKVQPIDSILADWNEDIEAFEMMEKD-OH [CS6942] | < 2000 µg/mL | – | – | –
H-WDGPPENDMLLKEICGSLIP-OH [CS7432] | – | 6.22 | 6.45 | –
H-YLLPKTAVVLRCPALRVRKP-OH [CS7418] | – | 6.76 | 6.96 | –
KGASLDAGWGSPRWTTTRMTSASAGRSTRA [CS7414] | – | 6.71 | 6.99 | Solubility in DMSO/D5W/Succinate [1]: Y
